Measurements taken from patent publication US20050288347A1, “Certain triazole-based compounds, compositions, and uses thereof” (priority 2004, published 2005).
“Also recorded” adds a separate entry of the source.

Each compound was assayed on protein kinase (assay: HTS ATP-utilizing enzyme assay, off-chip mobility-shift format (Caliper HTS 250)). Conditions: test compound 10 μM; active = activity greater than three-sigma from the mean of the predominately inactive population for that enzyme.
Type: biochemical, human
In short: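 Kinase reactions ran 2.5 h at 20 to 22 °C with test compound at 10 μM, in a HEPES pH 7.5 master buffer containing Triton X-100 and BSA. Peptide substrate and phosphorylated product separated by mobility shift; inhibition normalized to DMSO (0%) and EDTA (100%) controls, with three-sigma thresholds for hits.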

SMILES | protein kinase against which the compound exhibits inhibitory activity (Table 3)
CC(=O)c1ccc(-n2c(SCCCCc3ccccc3)nnc2-c2cccc(Cl)c2)cc1 | INSR
CCC(O)CSc1nnc(-c2cccc(Cl)c2)n1-c1ccccc1OC (stereo not shown) | ROCK2
C=CCSc1nnc(Cn2cnc3ccccc32)n1C | HCK
OC(CSc1nnc(-c2cccc(C(F)(F)F)c2)[nH]1)C(F)(F)F (stereo not shown) | AURORA-A; also recorded: FLT-3; also recorded: GSK3-β
O=C1c2ccccc2C(=O)N1CCSc1nnc(-c2cccc(C(F)(F)F)c2)[nH]1 | GSK3-β and PKA and GSK3-α
COc1ccccc1-n1c(SCC(=O)N2CCCC2)nnc1-c1ccccc1O | PRAK
COc1ccccc1-n1c(SCC(=O)Nc2ccccc2)nnc1-c1ccccc1O | AURORA-A
COc1ccccc1-n1c(SCC(O)c2ccccc2)nnc1-c1cccc(Cl)c1 (stereo not shown) | ROCK2
COc1ccccc1-n1c(SCC(=O)c2ccc3c(c2)OCCO3)nnc1-c1cccc(Cl)c1 | ROCK2
COc1ccccc1-n1c(SCC(=O)c2ccc(Cl)s2)nnc1-c1cccc(Cl)c1 | ROCK2
COc1ccccc1-n1c(SCC(=O)Nc2ccccc2)nnc1-c1cccc(Cl)c1 | ROCK2
COc1ccccc1-n1c(SCC(=O)c2ccc(F)cc2)nnc1-c1cccc(Cl)c1 | ROCK2
COc1ccccc1-n1c(SCCN)nnc1-c1cccc(Cl)c1 | PIM-1-KINASE
COc1ccccc1-n1c(SC2Cc3ccccc3C2=O)nnc1-c1cccc(Cl)c1 (stereo not shown) | ROCK2
C=C(C)Cn1c(SCC(=O)NN)nnc1-c1ccc(Br)cc1 | LCK
CCn1c(SCC(=O)NNC(=O)Cc2ccccc2)nnc1-c1ccc(Cl)cc1 | FYN
COc1ccccc1-n1c(SCc2ccc(Cl)nc2)nnc1-c1cccc(Cl)c1 | ROCK2
Cn1c(SCC(=O)NNC(=O)c2ccccc2O)nnc1-c1ccccc1 | FYN and FLT-3 and CSK
Cc1ccc(-n2c(SCC(=O)NNC(=O)c3ccccc3O)nnc2-c2ccccc2O)cc1 | AURORA-A
COc1ccccc1-n1c(SCCn2cccc2)nnc1-c1cccc(Cl)c1 | ROCK2
COc1ccc(CCn2c(CCC3CCCC3)nnc2SCC=C(C)C)cc1OC | GSK3-β; also recorded: GSK3-α
CCOCCSc1nnc(-c2ccc([N+](=O)[O-])cc2)[nH]1 | FLT-3; also recorded: AURORA-A; also recorded: GSK3-α
CCOCCSc1nnc(-c2cccc(C)c2)[nH]1 | AURORA-A; also recorded: FLT-3; also recorded: GSK3-β
COc1ccccc1-n1c(SCc2ccc(F)c(F)c2)nnc1-c1cccc(Cl)c1 | ROCK2
COc1ccccc1-n1c(SCCC(=O)O)nnc1-c1cccnc1 | AURORA-A

SMILES | protein kinase against which the compound exhibits inhibitory activity (Table 3)
COc1ccccc1-c1nnc(SCCC(=O)O)n1-c1cccc(Cl)c1 | CHEK2
O=C(O)CCSc1nnc(-c2ccc(O)cc2)n1-c1cccc(Cl)c1 | GSK3-β; also recorded: GSK3-α
CCc1ccc(OCc2nnc(SCCC(=O)O)n2CC)cc1 | MSK1
CCn1c(COc2cccc3ccccc23)nnc1SCCC(=O)O | AURORA-A
COc1ccc(-n2c(SCCC(=O)O)nnc2-c2ccc(NC(=O)c3ccccc3)cc2)cc1 | CHEK2; also recorded: AURORA-A
COc1ccc(-n2c(COc3ccccc3OC)nnc2SCCC(=O)O)cc1 | CDK1
CCn1c(COc2ccc(Br)cc2)nnc1SCCC(=O)O | AURORA-A
Cc1cc(OCc2nnc(SCCC(=O)O)n2C)ccc1Cl | AURORA-A
Cc1cc(C)nc(SCc2nnc(SCCC(=O)O)n2-c2ccccc2)n1 | CHEK2
CCCCSc1nnc(-c2cccnc2)[nH]1 | AURORA-A; also recorded: FLT-3; also recorded: c-TAK1
CCn1c(COc2ccc(Cl)c(C)c2)nnc1SC(C)C | AKT1
COc1ccccc1-n1c(SCc2cccc(C(=O)O)c2)nnc1-c1cccc(Cl)c1 | ROCK2
CC(C)=CCSc1nnc(Cc2ccccc2)n1Cc1ccc(Cl)c(Cl)c1 | c-TAK1
CC(C)=CCSc1nnc(CCC2CCCC2)n1CCCN1CCOCC1 | GSK3-α
COc1ccccc1-n1c(SCc2ccc(C(=O)O)cc2)nnc1-c1cccc(Cl)c1 | AURORA-A
COc1ccccc1-n1c(SCc2csc(C)n2)nnc1-c1cccc(Cl)c1 | ROCK2
CCc1nnc(SCC=C(C)C)n1Cc1ccc2c(c1)OCO2 | GSK3-β; also recorded: GSK3-α
COc1ccc(-c2nnc(SCC(=O)NNC(=O)c3ccc(Br)cc3)n2C)cc1 | CHEK2; also recorded: GSK3-β; also recorded: GSK3-α
O=C(CSc1nnc(-c2ccc(O)cc2)n1-c1ccccc1)NNC(=O)c1ccc(Cl)cc1 | AURORA-A
COc1ccc(-n2c(CNc3ccc(F)cc3)nnc2SC)cc1 | AKT1
COc1ccc(C(=O)NNC(=O)CSc2nnc(C)n2CC2CCCO2)cc1 (stereo not shown) | SYK
COc1ccc(C(=O)NNC(=O)CSc2nnc(C)n2CCc2ccccc2)cc1 | DGFRR-α
COc1ccccc1-n1c(SCCC2COCCN2)nnc1-c1cccc(Cl)c1 (stereo not shown) | ROCK2
O=C(NCCSc1nnc(-c2cccc(C(F)(F)F)c2)[nH]1)c1ccccc1 | GSK3-β; also recorded: GSK3-α; also recorded: CHEK2
COc1ccccc1-n1c(SCC(=O)Nc2cccc(NC(=O)c3ccco3)c2)nnc1-c1ccccc1O | AURORA-A

SMILES | protein kinase against which the compound exhibits inhibitory activity (Table 3)
CC(C)Sc1nnc(-c2ccc(NS(C)(=O)=O)cc2)n1C | CDK2-cyclinA
COc1ccccc1-n1c(SCC(=O)Nc2ccc(Cl)cc2)nnc1-c1ccccc1O | KIT and AURORA-A
Cn1c(SCC(=O)NN(Br)C(=O)c2ccccc2)nnc1C1CCCCC1 | SGK1
CCCCNC(=O)CSc1nnc(-c2ccccc2O)n1-c1ccccc1OC | INSR and KIT and SYK
COCCCn1c(SCC(=O)NN(O)C(=O)c2ccccc2)nnc1-c1ccncc1 | AURORA-A
CN(C)CCCSc1nnc(-c2cccc(C(F)(F)F)c2)[nH]1 | CHEK2; also recorded: c-TAK1; also recorded: GSK3-β
O=C(CSc1nnc(-c2ccncc2)n1-c1ccc(F)cc1)NN(O)C(=O)c1ccccc1 | FYN
O=C(CSc1nnc(-c2cccnc2)n1Cc1ccccc1)NNC(=O)c1ccc(Br)cc1 | PDGFRR-α; also recorded: AURORA-A
O=C(CSc1nnc(-c2ccccc2)n1Cc1ccccc1)NNC(=O)c1ccccc1O | FYN and CSK
CCn1c(SCC(=O)NNC(=O)C2CCCCC2)nnc1-c1ccncc1 | AURORA-A
Cc1ccc(C(=O)NNC(=O)CSc2nnc(Cc3ccccc3)n2Cc2ccccc2)cc1 | DAPK-1
COc1ccc(-c2nnc(SCC(=O)NNC(=O)c3ccccc3O)n2-c2ccccc2)cc1OC | FYN and FLT-3
CCn1c(CNc2ccccc2Cl)nnc1SCC(=O)NNC(=O)c1ccc(OC)cc1 | AURORA-A; also recorded: DYRK2
COc1ccc(C(=O)NNC(=O)CSc2nnc(CNc3cccc(Cl)c3)n2CCc2ccccc2)cc1 | PDGFRR-α and GSK3-β and CDK1
Cc1ccc(C(=O)NNC(=O)CSc2nnc(COc3ccc(C#N)cc3)n2-c2ccccc2)cc1 | LCK
COc1ccc(NCc2nnc(SCC(=O)NNC(=O)c3ccc(C)cc3)n2C)cc1 | PDGFRR-α and FYN and FLT-3
COc1ccc(-n2c(SCC(=O)NNC(C)=O)nnc2-c2ccncc2)cc1 | FYN
CCOC(=O)CCCSc1nnc(-c2ccc3[nH]c(C)c(C)c3c2)n1CC | FLT-3
Cn1c(Cn2nnc3ccccc32)nnc1SCC(=O)C1c2ccccc2CCc2ccccc21 | MAPKAPK-2
CCN(CC)S(=O)(=O)c1ccc(-c2nnc(SCC(=O)N3c4ccccc4CCc4ccccc43)n2CC)cc1 | DAPK1
Cc1cccc(OCc2nnc(SCC(=O)N3c4ccccc4CCc4ccccc43)n2C)c1C | MSK2
COc1cc2c(cc1NC(=O)CSc1nncn1C)oc1ccccc12 | CHEK2 and INSR and AURORA-A
O=C(CSc1nnc[nH]1)N1c2ccccc2CCc2ccccc21 | LCK
